Data set [1] concerns pain. The note with it: compositions containing 1 and 3% of pregabalin; cited from earlier work.
Data set [2] deals with neuropathic pain in a human patient. The note with it: topical aqueous solution; cited from earlier work.
Data set [3] has as its system CCI operated paw of rats (neuropathic pain). Briefly: Rat chronic constriction injury (CCI) model, paw withdrawal threshold with electronic von Frey device. In kind it is in vivo, Wistar rats. As to conditions: oral 16.66 mg/kg. The source says:
Furthermore, based on the article Bennett G J, at al (Pain., A peripheral mononeuropathy in rat that produces disorders of pain sensation like those seen in man. 1988 April; 33(1):87-107) we have developed a method for the examination of the compositions of the present invention. Thus, we have examined the compositions according to the present invention also with a different model for measuring the alleviation of the peripheral neuropathic pain also. Namely, we have carried out examinations on rats using Chronic constriction injury (CCI) model. Three weeks following nerve injury rats were assessed for hind paw mechanical withdrawal thresholds. The paw withdrawal threshold (PWT) was determined with an Electronic von Frey device according to the modified up-down method of Dixon (Efficient analysis of experimental observations., Annu Rev Pharmacol Toxicol. 1980; 20:441-62). […] The method and results are shown in example 3 and on FIG. 9.
Briefly, under isoflurane anesthesia small blunt dissection was made into the skin of rat right thigh then three loosely constrictive ligatures were placed around common sciatic nerve (chronic constriction injury CCI). Three weeks following nerve injury rats were assessed for hind paw mechanical withdrawal thresholds. […]

Data set [4] is described as follows: Solubility of pregabalin in solvents. As to conditions: any solvents.
Data set [5] relates to allodynia in nerve-ligated mice. The note with it: cited from earlier work.
The nature of data set [6]: Pharmacokinetic studies in rats (blood levels of pregabalin).

With `CC(C)C[C@H](CN)CC(=O)O` [pregabalin], the “Time after which the pain alleviation effect decreased” value in data set [1] was 1.5 to 2 h. Moreover, the “Time for which neuropathic pain was reduced” value in data set [2] is 6 h. In addition, the “Reduction of hypersensitivity after oral administration” value in data set [3] is “not able to reduce hypersensitivity”. In data set [4], the Solubility entry is reported as “poor”. The “Time of maximum allodynia alleviating effect” value in data set [5] (topical 2.5% aqueous solution without other ingredients) is 1 h. The “Alleviating effect after 3 hours and 6 hours” value in data set [5] (topical 2.5% aqueous solution) was “essentially disappeared”. For the same molecule, in data set [6] (oral 16.66 mg/kg), the “Blood levels after oral administration” value is “relatively high blood levels”. Besides, the “Amount entering the bloodstream during topical treatment” value in data set [6] (topical treatment) is given as “very small amounts”.
